Experimental data: PubChem BioAssay (NCI)
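All cell lines were grown in 96-well plates and treated with compound for 48 hours. At the GI50, growth is halved. The concentration for full growth arrest is given as TGI.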

Legend:
Assay in all cases: NCI tumour cell line growth inhibition, 48 h
[1] = tested on: EKVX NSCLC
[2] = tested on: SF-539 CNS
[3] = tested on: COLO 205 colon
[4] = tested on: A549 NSCLC
[5] = tested on: U251 CNS
[6] = tested on: M14 melanoma
[7] = tested on: UACC-257 melanoma
[8] = tested on: NCI-H522 lung
[9] = tested on: K-562 leukemia
[10] = tested on: OVCAR-8 ovarian
[11] = tested on: OVCAR-3 ovarian
[12] = tested on: NCI-H460 lung
[13] = tested on: HOP-62 NSCLC
[14] = tested on: MOLT-4 leukemia
[15] = tested on: SK-MEL-5 melanoma
[16] = tested on: HOP-18 NSCLC
[17] = tested on: HCC-2998 colon
[18] = tested on: SK-MEL-2 melanoma
[19] = tested on: SNB-19 CNS
[20] = tested on: DLD-1 colon
[21] = tested on: UO-31 renal
[22] = tested on: MALME-3M melanoma
[23] = tested on: IGROV1 ovarian
[24] = tested on: OVCAR-5 ovarian
[25] = tested on: CCRF-CEM leukemia
[26] = tested on: HL-60(TB) leukemia
[27] = tested on: SNB-75 CNS
[28] = tested on: RPMI-8226 leukemia
[29] = tested on: SN12C renal
[30] = tested on: SK-MEL-28 melanoma
[31] = tested on: SW-620 colon
[32] = tested on: SF-268 CNS
[33] = tested on: RXF 393 renal
[34] = tested on: LXFL 529 NSCLC
[35] = tested on: SK-OV-3 ovarian
[36] = tested on: UACC-62 melanoma
[37] = tested on: KM20L2 colon
[38] = tested on: KM12 colon
[39] = tested on: NCI-H23 lung
[40] = tested on: HCT-15 colon
[41] = tested on: OVCAR-4 ovarian
[42] = tested on: ACHN renal
[43] = tested on: HCT-116 colon
[44] = tested on: 786-0 renal
[45] = tested on: NCI-H226 lung
[46] = tested on: CAKI-1 renal
[47] = tested on: A498 renal
[48] = tested on: LOX IMVI melanoma
[49] = tested on: HT29 colon
[50] = tested on: SF-295 CNS

## CC(=O)[CH-]C(=O)c1ccccc1.CC(=O)[CH-]C(=O)c1ccccc1.Cc1cc([O-])ccc1Cl.Cc1cc([O-])ccc1Cl.[Ti+4]
[1]
  GI50: 18 µM
  TGI: 47.3 µM
[2]
  GI50: 25.9 µM
  TGI: 72.9 µM
[3]
  GI50: 19.6 µM
  TGI: 38.1 µM
[4]
  GI50: 37.6 µM
  TGI: > 100 µM
[5]
  GI50: 22.1 µM
  TGI: > 100 µM
[6]
  GI50: 23.1 µM
  TGI: 52.5 µM
[7]
  GI50: 27.1 µM
  TGI: 92.4 µM
[8]
  GI50: 15.6 µM
  TGI: 34.7 µM
[9]
  GI50: 23.3 µM
  TGI: > 100 µM
[10]
  GI50: 16.8 µM
  TGI: 59.1 µM
[11]
  GI50: 18.9 µM
  TGI: 60.6 µM
[12]
  GI50: 22.6 µM
  TGI: > 100 µM
[13]
  GI50: 19.5 µM
  TGI: 70.9 µM
[14]
  GI50: 15.5 µM
  TGI: 54 µM
[15]
  GI50: 19.3 µM
  TGI: 44.9 µM
[16]
  GI50: 27.8 µM
  TGI: > 100 µM
[17]
  GI50: 5.92 µM
  TGI: 28.1 µM
[18]
  GI50: 19.3 µM
  TGI: 47 µM
[19]
  GI50: 26.7 µM
  TGI: 90.5 µM
[20]
  GI50: 36.9 µM
  TGI: > 100 µM
[21]
  GI50: 15.5 µM
  TGI: 47.4 µM
[22]
  GI50: 20.9 µM
  TGI: 52.8 µM
[23]
  GI50: 26.9 µM
  TGI: > 100 µM
[24]
  GI50: 32.7 µM
  TGI: > 100 µM
[25]
  GI50: 8.45 µM
  TGI: 42.3 µM
[26]
  GI50: 13.7 µM
  TGI: 44.2 µM
[27]
  GI50: 20.7 µM
  TGI: 69.1 µM
[28]
  GI50: 19.2 µM
  TGI: 55.3 µM
[29]
  GI50: 32.3 µM
  TGI: > 100 µM
[30]
  GI50: 34.7 µM
  TGI: > 100 µM
[31]
  GI50: 34 µM
  TGI: > 100 µM
[32]
  GI50: 19.5 µM
  TGI: 74.8 µM
[33]
  GI50: 26 µM
  TGI: 62.8 µM
[34]
  GI50: 22.1 µM
  TGI: > 100 µM
[35]
  GI50: 31.3 µM
  TGI: > 100 µM
[36]
  GI50: 17 µM
  TGI: 44.9 µM
[37]
  GI50: 28.3 µM
  TGI: 84.9 µM
[38]
  GI50: 14.1 µM
  TGI: 31.4 µM
[39]
  GI50: 35.6 µM
  TGI: > 100 µM
[40]
  GI50: 25.6 µM
  TGI: > 100 µM
[41]
  GI50: 40.8 µM
  TGI: > 100 µM
[42]
  GI50: 30.1 µM
  TGI: > 100 µM
[43]
  GI50: 35 µM
  TGI: > 100 µM
[44]
  GI50: 27.7 µM
  TGI: > 100 µM
[45]
  GI50: 20.2 µM
  TGI: 69.2 µM
[46]
  GI50: 19.5 µM
  TGI: 60.1 µM
[47]
  GI50: 17.2 µM
  TGI: 42.8 µM
[48]
  GI50: 12.6 µM
  TGI: 31.8 µM
[49]
  GI50: 28.9 µM
  TGI: 95.5 µM
[50]
  GI50: 29.8 µM
  TGI: 98.7 µM
